Assay results published in patent publication US20070128217A1 (priority 2003, published 2007).

Assays:
[1] = test system: antibodies in sera from SARS patients (sera 1a, 1b, 2, 6, 37, 62, London, SARS-yellow, SARS-green); format: binding, human; parameters: Binding of serum 6 to linear peptides of protein X1 of SARS-CoV Urbani / Binding of serum 37 to linear peptides of protein X1 of SARS-CoV Urbani / Binding of serum 6 to looped/cyclic peptide (PEPSCAN-ELISA) / Binding of serum 37 to looped/cyclic peptide (PEPSCAN-ELISA) / Binding of serum 37 to looped/cyclic peptides of protein X1 of SARS-CoV Urbani / Binding of serum 6 to linear peptides of protein X2 / Binding of serum 37 to linear peptides of protein X2 / Binding of serum 37 to looped/cyclic peptides of protein X2 of SARS-CoV Urbani / Binding of serum 6 to linear peptides of protein M of SARS-CoV Urbani / Binding of serum 37 to linear peptides of protein M of SARS-CoV Urbani / Binding of serum 6 to looped/cyclic peptides of protein M of SARS-CoV Urbani / Binding of serum 37 to looped/cyclic peptides of protein M of SARS-CoV Urbani / Binding of serum 6 to linear peptides of protein X3 of SARS-CoV Urbani / Binding of serum 37 to linear peptides of protein X3 of SARS-CoV Urbani / Binding of serum 37 to looped/cyclic peptides of protein X3 of SARS-CoV Urbani / Binding of serum 6 to linear peptides of protein X4 of SARS-CoV Urbani / Binding of serum 37 to linear peptides of protein X4 of SARS-CoV Urbani / Binding of serum 37 to looped/cyclic peptides of protein X4 of SARS-CoV Urbani / Binding of serum 6 to linear peptides of protein X5 of SARS-CoV Urbani / Binding of serum 37 to linear peptides of protein X5 of SARS-CoV Urbani / Binding of serum 37 to looped/cyclic peptides of protein X5 of SARS-CoV Urbani / Binding of serum 6 to linear peptides of protein N of SARS-CoV Urbani / Binding of serum 37 to linear peptides of protein N of SARS-CoV Urbani / Binding of serum 6 to linear peptide (PEPSCAN-ELISA) / Binding of serum 1a to looped/cyclic peptides of protein N of SARS-CoV Urbani / Binding of serum 1b to looped/cyclic peptides of protein N of SARS-CoV Urbani / Binding of serum 2 to looped/cyclic peptides of protein N of SARS-CoV Urbani / Binding of serum 6 to looped/cyclic peptides of protein N of SARS-CoV Urbani / Binding of serum 37 to looped/cyclic peptides of protein N of SARS-CoV Urbani / Binding of serum 62 to looped/cyclic peptides of protein N of SARS-CoV Urbani / Binding of serum London to looped/cyclic peptides of protein N of SARS-CoV Urbani / Binding of serum SARS-green to looped/cyclic peptides of protein N of SARS-CoV Urbani: unit not given here
[2] = test system: rabbit serum obtained by immunizing a rabbit with the SARS-CoV strain Frankfurt 1; format: binding; parameters: Binding of a rabbit serum to linear peptides / Binding of a rabbit serum to looped peptides / Rabbit serum linear peptides / Rabbit serum looped peptides / Binding of a rabbit serum to linear peptides of protein N of SARS-CoV Urbani (Rabbit serum linear peptides) / Binding of a rabbit serum to looped/cyclic peptides of protein N of SARS-CoV Urbani (Rabbit serum looped peptides): unit not given here
[3] = test system: control sera (pooled serum of ten healthy LUMC hospital workers; commercial negative donor pooled serum from the Dutch bloodbank); format: binding, human; parameters: Binding of Control serum LUMC to linear peptides / Binding of Control serum Blood-bank to linear peptides / Binding of Control serum LUMC to looped peptides / Binding of Control Serum Blood-Bank to Looped peptides / Binding of Control serum LUMC to linear peptides of the protein M of SARS-CoV Urbani / Binding of Control serum Blood-bank to linear peptides of the protein M of SARS-CoV Urbani / Binding of Control serum LUMC to looped peptides of the protein M of SARS-CoV Urbani / Binding of Control Serum Blood-Bank to Looped peptides of the protein M of SARS-CoV Urbani: unit not given here

## TMSLYMAISPKFTTS
[1]
  Binding of serum 1a to linear peptides of protein X2: 0.5
  Binding of serum 1a to looped/cyclic peptides of protein X2 of SARS-CoV Urbani: 0.6
  Binding of serum 1b to linear peptides of protein X2: 0.0
  Binding of serum 1b to looped/cyclic peptides of protein X2 of SARS-CoV Urbani: 0.6
  Binding of serum 2 to linear peptides of protein X2: 0.4
  Binding of serum 2 to looped/cyclic peptides of protein X2 of SARS-CoV Urbani: 0.4
  Binding of serum 6 to linear peptides of protein X2: 0.3
  Binding of serum 6 to looped/cyclic peptides of protein X2 of SARS-CoV Urbani: 0.4
  Binding of serum 37 to linear peptides of protein X2: 0.2
  Binding of serum 37 to looped/cyclic peptides of protein X2 of SARS-CoV Urbani: 0.5
  Binding of serum 62 to linear peptides of protein X2: 0.7
  Binding of serum 62 to looped/cyclic peptides of protein X2 of SARS-CoV Urbani: 0.7
  Binding of serum London to linear peptides of protein X2: 0.4
  Binding of serum London to looped/cyclic peptides of protein X2 of SARS-CoV Urbani: 0.2
  Binding of serum SARS-green to linear peptides of protein X2: 0.5
  Binding of serum SARS-green to looped/cyclic peptides of protein X2 of SARS-CoV Urbani: 0.4
  Binding of serum SARS-yellow to linear peptides of protein X2: 0.0
  Binding of serum SARS-yellow to looped/cyclic peptides of protein X2 of SARS-CoV Urbani: 0.6
[2]
  Binding of a rabbit serum to linear peptides: 0.2
  Binding of a rabbit serum to looped peptides: 0.5
[3]
  Binding of Control Serum Blood-Bank to Looped peptides: 0.8
  Binding of Control serum Blood-bank to linear peptides: 0.5
  Binding of Control serum LUMC to linear peptides: 0.7
  Binding of Control serum LUMC to looped peptides: 0.8

## SLYMAISPKFTTSLS
[1]
  Binding of serum 1a to linear peptides of protein X2: 0.7
  Binding of serum 1a to looped/cyclic peptides of protein X2 of SARS-CoV Urbani: 0.6
  Binding of serum 1b to linear peptides of protein X2: 0.5
  Binding of serum 1b to looped/cyclic peptides of protein X2 of SARS-CoV Urbani: 0.6
  Binding of serum 2 to linear peptides of protein X2: 0.5
  Binding of serum 2 to looped/cyclic peptides of protein X2 of SARS-CoV Urbani: 0.3
  Binding of serum 6 to linear peptides of protein X2: 0.4
  Binding of serum 6 to looped/cyclic peptides of protein X2 of SARS-CoV Urbani: 0.4
  Binding of serum 37 to linear peptides of protein X2: 0.6
  Binding of serum 37 to looped/cyclic peptides of protein X2 of SARS-CoV Urbani: 0.4
  Binding of serum 62 to linear peptides of protein X2: 0.6
  Binding of serum 62 to looped/cyclic peptides of protein X2 of SARS-CoV Urbani: 0.5
  Binding of serum London to linear peptides of protein X2: 0.6
  Binding of serum London to looped/cyclic peptides of protein X2 of SARS-CoV Urbani: 0.3
  Binding of serum SARS-green to linear peptides of protein X2: 0.6
  Binding of serum SARS-green to looped/cyclic peptides of protein X2 of SARS-CoV Urbani: 0.5
  Binding of serum SARS-yellow to linear peptides of protein X2: 0.6
  Binding of serum SARS-yellow to looped/cyclic peptides of protein X2 of SARS-CoV Urbani: 0.6
[2]
  Binding of a rabbit serum to linear peptides: 0.2
  Binding of a rabbit serum to looped peptides: 0.3
[3]
  Binding of Control Serum Blood-Bank to Looped peptides: 0.6
  Binding of Control serum Blood-bank to linear peptides: 0.7
  Binding of Control serum LUMC to linear peptides: 0.6
  Binding of Control serum LUMC to looped peptides: 0.9

## LAWIMLLQFAYSNRN
[1]
  Binding of serum 1a to linear peptides of protein M of SARS-CoV Urbani: 0.6
  Binding of serum 1a to looped/cyclic peptides of protein M of SARS-CoV Urbani: 0.7
  Binding of serum 1b to linear peptides of protein M of SARS-CoV Urbani: 0.5
  Binding of serum 1b to looped/cyclic peptides of protein M of SARS-CoV Urbani: 0.7
  Binding of serum 2 to linear peptides of protein M of SARS-CoV Urbani: 0.4
  Binding of serum 2 to looped/cyclic peptides of protein M of SARS-CoV Urbani: 0.4
  Binding of serum 6 to linear peptides of protein M of SARS-CoV Urbani: 0.2
  Binding of serum 6 to looped/cyclic peptides of protein M of SARS-CoV Urbani: 0.7
  Binding of serum 37 to linear peptides of protein M of SARS-CoV Urbani: 0.7
  Binding of serum 37 to looped/cyclic peptides of protein M of SARS-CoV Urbani: 0.6
  Binding of serum 62 to linear peptides of protein M of SARS-CoV Urbani: 0.7
  Binding of serum 62 to looped/cyclic peptides of protein M of SARS-CoV Urbani: 0.6
  Binding of serum London to linear peptides of protein M of SARS-CoV Urbani: 0.2
  Binding of serum London to looped/cyclic peptides of protein M of SARS-CoV Urbani: 0.2
  Binding of serum SARS-green to linear peptides of protein M of SARS-CoV Urbani: 0.3
  Binding of serum SARS-green to looped/cyclic peptides of protein M of SARS-CoV Urbani: 0.4
  Binding of serum SARS-yellow to linear peptides of protein M of SARS-CoV Urbani: 0.0
  Binding of serum SARS-yellow to looped/cyclic peptides of protein M of SARS-CoV Urbani: 0.3
[2]
  Rabbit serum linear peptides: 0.8
  Rabbit serum looped peptides: 0.1
[3]
  Binding of Control Serum Blood-Bank to Looped peptides of the protein M of SARS-CoV Urbani: 0.6
  Binding of Control serum Blood-bank to linear peptides of the protein M of SARS-CoV Urbani: 0.6
  Binding of Control serum LUMC to linear peptides of the protein M of SARS-CoV Urbani: 0.2
  Binding of Control serum LUMC to looped peptides of the protein M of SARS-CoV Urbani: 0.6
